Data published in patent US11103511B2, “Substituted indolo[2,1-b]quinazolines as inhibitors of tryptophan dioxygenase and indoleamine 2,3-dioxygenase 1” (FUDAN UNIVERSITY, priority 2017, dated 2021).

Tests used:
[1] = molecular target: T1, IDO2 (Homo sapiens, UniProt Q6ZQW0); test: Half effective inhibitory concentration IC50 (enzyme level) of IDO2; type: biochemical; settings: human IDO2, pH 7.5, read-out: IC50 enzymatic IDO2
T1 construct: made in house
T1 sequence (Q6ZQW0 1-407): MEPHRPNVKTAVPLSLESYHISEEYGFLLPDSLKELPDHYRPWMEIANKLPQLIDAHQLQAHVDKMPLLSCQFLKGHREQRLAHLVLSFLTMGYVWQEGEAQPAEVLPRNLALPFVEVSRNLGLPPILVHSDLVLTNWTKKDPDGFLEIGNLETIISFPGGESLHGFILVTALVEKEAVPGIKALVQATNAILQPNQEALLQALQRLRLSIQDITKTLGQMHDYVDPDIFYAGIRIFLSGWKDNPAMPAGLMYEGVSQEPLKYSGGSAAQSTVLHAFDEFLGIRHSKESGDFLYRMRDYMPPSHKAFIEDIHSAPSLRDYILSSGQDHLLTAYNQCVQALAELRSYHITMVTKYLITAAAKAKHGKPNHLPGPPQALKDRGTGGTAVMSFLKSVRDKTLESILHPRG
Description: After the mixed solution was in water bath at 37° C. for 5 min, IDO2 was added to mixed solution and reacted at 37° C. for 30 min. After the enzymatic reaction was completed, 200 μL of 30% (w/v) trichloroacetic acid was added to terminate the reaction. Then the reaction mixture was heated in a 65° C. water bath for 15 min to make the reaction product transform from N-formyl-kynurenine to kynurenine, and centrifuged at […] for 10 min. 100 μL of supernatant was draw and mixed with equal volume of 2‰ (w/v) p-dimethylaminobenzaldehyde in acetic acid completely.

[2] = molecular target: T2, hTDO (Homo sapiens, UniProt P48775); test: Half effective inhibitory concentration IC50 (enzyme level) of TDO; type: biochemical; settings: pH 7.0, NI means of no inhibitory activity, read-out: IC50 enzymatic TDO
T2 construct: made in house
T2 sequence (P48775 whole entry): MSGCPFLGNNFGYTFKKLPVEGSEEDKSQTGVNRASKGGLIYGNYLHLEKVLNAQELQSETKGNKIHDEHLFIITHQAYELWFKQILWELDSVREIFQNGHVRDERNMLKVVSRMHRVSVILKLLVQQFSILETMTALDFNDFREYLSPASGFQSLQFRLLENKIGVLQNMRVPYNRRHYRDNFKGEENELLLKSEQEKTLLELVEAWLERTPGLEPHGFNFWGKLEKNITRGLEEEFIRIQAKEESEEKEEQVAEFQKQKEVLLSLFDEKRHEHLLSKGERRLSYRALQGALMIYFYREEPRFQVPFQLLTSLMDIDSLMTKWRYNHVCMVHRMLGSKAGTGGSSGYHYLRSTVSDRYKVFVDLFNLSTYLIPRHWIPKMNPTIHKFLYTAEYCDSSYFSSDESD
Description: The nucleotide sequences of IDO1, IDO2, and TDO have been disclosed. The active IDO1, IDO2, and TDO in the Examples are human IDO1, IDO2, and TDO, and can be prepared by conventional molecular cloning methods.
In a 500 μL of standard detection system, 50 mmol/L potassium phosphate buffer (pH 7.0), 200 μg/mL catalase, 40 mmol/L ascorbic acid, 20 μmol/L methylene blue, substrate L-tryptophan with suitable concentration and hTDO inhibitors to be tested were mixed. After the mixed solution was warmed in water bath at 37° C. for 5 min, hTDO was added to react at 37° C. for 30 min. After the enzymatic reaction was completed, […] (w/v) trichloroacetic acid was added to terminate the reaction. Then the reaction mixture was heated in a 65° C. water bath for 15 min to make the reaction product transform from N-formyl-kynurenine to kynurenine, and centrifuged at […] for 10 min. 100 μL of supernatant was draw and mixed with equal volume of 2‰ (w/v) p-dimethylaminobenzaldehyde in acetic acid completely. The kynurenine can reacted with the solution and turned the mixed solution to yellow, and the absorbance was measured at 492 nm by microplate reader. The inhibitory rate was plotted against the inhibitor concentration, and the IC50 value was calculated by modified Karber method, the experimental results were shown in Table 1.

[3] = molecular target: T1, IDO2; test: Half effective inhibitory concentration IC50 (cell) of IDO2, transfected U87 MG cells; type: cell-based; settings: U87 MG cells transfected with pcDNA3.1(+)-IDO2, 24 h; read-out: IC50 Cellular IDO2
Description: The nucleotide sequences of IDO1, IDO2, and TDO have been disclosed. […] U87 MG cell line (ATCC No.: HTB-14) was cultured in DMEM high-sugar medium containing 10% fetal bovine serum in a 37° C., 5% CO2 incubator. The cells were blown evenly into 6-well plate, and transfected when the cells grew to 80%-90% fusion. […] The cells were cultured in 37° C., 5% CO2 incubator for 6 h, and the medium was changed into DMEM medium containing 10% serum after adherence. […] Test compounds (including compounds of the present invention, […] and D-1-MT) at different concentration gradients were added and the total volume of each well was supplemented to 200 μl with cell culture medium containing L-tryptophan (200 μM of final concentration, sterilized by filtration). After incubated for 24 h, 140 μL of supernatant was taken into another 96-well plate, 10 μL of 30% (w/v) trichloroacetic acid was added, heated at 65° C. for 15 min, and centrifuged at 13800×g for 5 minutes. […] The experimental grouping was pcDNA3.1 (+)-IDO2 transfected group (experimental group), pcDNA3.1 (+) transfected group (empty plasmid control group), and non-transfected group (blank control group). Each group had three repeated well. The inhibitory rate was plotted against the inhibitor concentration, and the IC50 value was calculated by modified Karber method.

[4] = molecular target: T2, hTDO; test: Half effective inhibitory concentration IC50 (cell) of TDO, transfected HEK293 cells; type: cell-based; settings: HEK293 cells transfected with pcDNA3.1(+)-hTDO, 5 h; NI means of no inhibitory activity; read-out: IC50 Cellular TDO
Description: The nucleotide sequences of IDO1, IDO2, and TDO have been disclosed. The active IDO1, IDO2, and TDO in the Examples are human IDO1, IDO2, and TDO, and can be prepared by conventional molecular cloning methods. HEK293 cell line was cultured in DMEM high-sugar medium containing 10% fetal bovine serum in a 37° C., 5% CO2 incubator. The cells were blown evenly into 6-well plates, and transfected when the cells grew to 80%-90% fusion. The operation was carried out according to the instructions of Lipofectamine 2000 while improved slightly: the serum-containing medium was draw out and the cells were washed twice with PBS, and 1500 μL of serum-free medium was added to each well. […] The cells were cultured in 37° C., 5% CO2 incubator for 4-6 h, and then the medium was changed into DMEM medium containing 10% serum. […] Test compounds (including compounds of the present invention, […] and INCB023460) at different concentration gradients were added and the total volume of each well was supplemented to 200 μl with cell culture medium. After incubated for 5 h, 140 μL of supernatant was taken into another 96-well plate, 10 μL of 30% (w/v) trichloroacetic acid was added, heated at 65° C. for 15 min, and centrifuged at 13800×g for 5 minutes. 100 μL of supernatant was mixed with equal volume of 2‰ (w/v) […] acetic acid solution, the absorbance was measured at 492 nm by microplate reader after fully mixing. The experimental grouping was pcDNA3.1 (+)-hTDO transfected group (experimental group), pcDNA3.1 (+) transfected group (plasmid-empty control group), and non-transfected group (blank control group). Each group had three repeated well. The inhibitory rate was plotted against the inhibitor concentration, and the IC50 value was calculated by modified Karber method, the experimental results were shown in Table 1.

[5] = molecular target: T1, IDO2; test: Determination of IDO2 inhibitor type and Ki value; type: biochemical; settings: [S]/V~[i] map, L-tryptophan 20-40 mM
Description: (§1) The nucleotide sequences of IDO1, IDO2, and TDO have been disclosed.
After the mixed solution was in water bath at 37° C. for 5 min, 10 μL of IDO2 (about 1 μM) was added to mixed solution and reacted at 37° C. for 30 min. After the enzymatic reaction was completed, 200 μL of 30% (w/v) trichloroacetic acid was added to terminate the reaction. Then the reaction mixture was heated in 65° C. water bath for 15 min to make the reaction product transform from N-formyl-kynurenine to kynurenine, and centrifuged at […] for 10 min. 100 μL of supernatant was draw and mixed with equal volume of 2‰ (w/v) p-dimethylaminobenzaldehyde in acetic acid completely. […] The inhibitor type was determined by Dixon mapping method (1/v˜[i]); the Ki value of inhibitor was obtained by [S]/V˜[i] map.

[6] = molecular target: T3, IDO1 (Homo sapiens, UniProt P14902); test: IC50 (enzyme level) of IDO1; type: biochemical; settings: read-out: IC50 enzymatic IDO1
T3 sequence (P14902 whole entry): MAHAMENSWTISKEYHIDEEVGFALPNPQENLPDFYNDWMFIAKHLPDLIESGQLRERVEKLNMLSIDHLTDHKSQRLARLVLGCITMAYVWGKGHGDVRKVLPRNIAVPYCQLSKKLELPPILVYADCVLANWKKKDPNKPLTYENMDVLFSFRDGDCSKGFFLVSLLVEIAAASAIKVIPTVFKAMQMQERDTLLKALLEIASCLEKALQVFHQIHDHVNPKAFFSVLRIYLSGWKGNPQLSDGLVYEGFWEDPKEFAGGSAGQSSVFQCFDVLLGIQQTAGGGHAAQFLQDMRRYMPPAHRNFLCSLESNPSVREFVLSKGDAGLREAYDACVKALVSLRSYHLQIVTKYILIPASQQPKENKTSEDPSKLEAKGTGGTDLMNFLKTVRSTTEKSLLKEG
Text: as §1
(§2) The IC50 test of IDO1 can be performed with reference to existing methods in the art, such as the method described in Chinese Patent NO.

[7] = molecular target: T3, IDO1; test: Cellular IC50 of IDO1; type: cell-based
Text: as §1, §2

[8] = molecular target: T3, IDO1; test: Ki value of IDO1; type: biochemical
Text: as §1, §2

[9] = cellular, read-out: IC50 Cellular IDO1

## O=C1c2cc(F)ccc2-n2c1nc1ccc(CN3CCOCC3)cc1c2=O [1f]
[1]
  IC50: 39.6 µM
[2]
  IC50: 0.87 µM
[3]
  IC50: 16.5 µM
[4]
  IC50: 0.071 µM
[5]
  Ki: 17.5 µM

## O=C1c2cc(F)ccc2-n2c1nc1ccc(CN3CCNCC3)cc1c2=O [1b]
[1]
  IC50: 31.4 µM
[2]
  IC50: 0.87 µM
[3]
  IC50: 3.58 µM
[4]
  IC50: 0.092 µM
[5]
  Ki: 1.96 µM

## O=C1c2cc(Cn3cc(-c4ccccc4)nn3)ccc2-n2c1nc1ccc(Br)cc1c2=O [3e, 8-(4-phenyl-1H-1,2,3-triazol-1-methylene) -2-bromotryptanthrin]
[6]
  IC50: 41.1 µM
[1]
  IC50: 102 µM
[2]
  IC50: 44.6 µM
[7]; [9]
  IC50: 0.201 µM
[3]
  IC50: 51.2 µM
[4]
  IC50: 0.715 µM

## CN1CCN(Cc2ccc3nc4n(c(=O)c3c2)-c2ccc(F)cc2C4=O)CC1 [1a]
[1]
  IC50: 18.4 µM
[2]
  IC50: 0.76 µM
[7]
  IC50: 0.022 µM
[3]
  IC50: 18.7 µM
[4]
  IC50: 0.093 µM
[5]
  Ki: 6.32 µM

## O=C1c2cc(Cn3cc(-c4ccccc4)nn3)ccc2-n2c1nc1ccc(Cl)cc1c2=O [3f, 8-(4-phenyl-1H-1,2,3-triazol-1-methylene) -2-chlorotryptanthrin]
[6]
  IC50: 42.2 µM
[1]
  IC50: 125 µM
[2]
  IC50: 50.1 µM
[7]; [9]
  IC50: 0.245 µM
[3]
  IC50: 65.1 µM
[4]
  IC50: 0.713 µM

## Cc1ccc2nc3n(c(=O)c2c1)-c1ccc(Cn2cc(-c4ccccc4)nn2)cc1C3=O [3d, 8-(4-phenyl-1H-1,2,3-triazol-1-methylene) -2-methyltryptanthrin]
[6]
  IC50: 82.6 µM
[1]
  IC50: 134 µM
[2]
  IC50: 88.7 µM
[7]; [9]
  IC50: 0.547 µM
[3]
  IC50: 68.4 µM
[4]
  IC50: 1.44 µM
[8]
  Ki: 98.1 µM

## O=C1c2cc(F)ccc2-n2c1nc1ccc(Cn3cc(-c4ccccc4)nn3)cc1c2=O [3c]
[6]
  IC50: 39.1 µM
[1]
  IC50: 83 µM
[2]
  IC50: 40 µM
[7]; [9]
  IC50: 0.185 µM
[3]
  IC50: 41.7 µM
[4]
  IC50: 0.197 µM
[8]
  Ki: 63.3 µM

## O=C1c2cc(Cn3cc(-c4ccccc4)nn3)ccc2-n2c1nc1ccc(F)cc1c2=O [3b]
[6]
  IC50: 50 µM
[1]
  IC50: 99.6 µM
[2]
  IC50: 81.8 µM
[7]; [9]
  IC50: 0.335 µM
[3]
  IC50: 50.1 µM
[4]
  IC50: 1.37 µM
[8]
  Ki: 96.3 µM

## CC(C)(C)OC(=O)N1CCN(Cc2ccc3nc4n(c(=O)c3c2)-c2ccc(F)cc2C4=O)CC1 [1c]
[1]
  IC50: 62.6 µM
[2]
  IC50: 0.45 µM
[7]
  IC50: 0.133 µM
[3]
  IC50: 8.05 µM
[4]
  IC50: 0.067 µM
[5]
  Ki: 6.11 µM

## O=C1c2cc(Cn3cc(-c4ccccc4)nn3)ccc2-n2c1nc1ccccc1c2=O [3a]
[6]
  IC50: 45.2 µM
[1]
  IC50: 98 µM
[2]
  IC50: 46.6 µM
[7]; [9]
  IC50: 0.278 µM
[3]
  IC50: 48.1 µM
[4]
  IC50: 0.688 µM
[8]
  Ki: 103 µM

## CN(C)Cc1ccc2nc3n(c(=O)c2c1)-c1ccc(F)cc1C3=O [1e]
[1]
  IC50: 14 µM
[2]
  IC50: 0.41 µM
[3]
  IC50: 3.81 µM
[4]
  IC50: 0.063 µM
[5]
  Ki: 4.32 µM

## CN1CCN(Cc2ccc3nc4n(c(=O)c3c2)-c2ccccc2C4=O)CC1 [1d]
[1]
  IC50: 46.9 µM
[2]
  IC50: 2.41 µM
[7]; [9]
  IC50: 0.177 µM
[3]
  IC50: 23.3 µM
[4]
  IC50: 0.184 µM
[5]
  Ki: 8.85 µM
